From patent US20050267182A1, “Urea derivatives as FLT-3 modulators” (Ambit Biosciences Corporation, priority 2003, published 2005)

Assays:
FLT3 = molecular target: T1, FLT3 (Homo sapiens, UniProt P36888); assay: Binding constant (Kd) measurement, phage-displayed kinase competition binding assay; conditions: for Binding Assay: FLT3(DKIN): FLT3(DKIN) construct; for Binding Assay: FLT3(JMminus): FLT3(JMminus) construct
T1 construct: FLT3(DKIN); made in house
T1 sequence (P36888 610-943 limits assumed): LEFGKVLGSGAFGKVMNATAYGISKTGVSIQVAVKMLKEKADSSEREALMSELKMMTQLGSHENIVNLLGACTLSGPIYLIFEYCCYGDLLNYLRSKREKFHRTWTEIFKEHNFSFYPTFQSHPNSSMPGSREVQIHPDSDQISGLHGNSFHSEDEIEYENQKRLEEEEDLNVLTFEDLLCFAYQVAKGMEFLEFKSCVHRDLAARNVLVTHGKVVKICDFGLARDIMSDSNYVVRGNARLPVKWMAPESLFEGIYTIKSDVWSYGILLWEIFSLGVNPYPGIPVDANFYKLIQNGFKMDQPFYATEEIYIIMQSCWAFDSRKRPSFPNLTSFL
Source text: Binding Constant (Kd) Measurements for Small-Molecule-Kinase Interactions
The term “ND” represents non-determined values.

CS0002 = assay: Cell Assay: CS0002; type: cell-based; conditions: cell assay code CS0002
MV4,11 cells = assay: FLT3 assay using MV4,11 cells (cellular proliferation, MTS); type: cell-based, human; conditions: cell assay code CS0001
Outline: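 MV4,11 AML cells, […] switch to DMEM/10% FBS overnight, plated at 10,000 cells/well and exposed to serially diluted compounds in duplicate for 3 days at 37° C., 5% CO2. Proliferation read by MTS added for 2 h.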

CS0005 = assay: Cell Assay: CS0005; type: cell-based; conditions: cell assay code CS0005

| Structure (SMILES) | Binding Assay: FLT3(DKIN) (FLT3) | IC50 (CS0002) | Cell Assay: CS0001:IC50 (MV4,11 cells) | Cell Assay: CS0005:IC50 (CS0005) | Cell Assay: CS0002:IC50 (CS0002) | Binding Assay: FLT3(JMminus) (FLT3) | Binding Assay: FLT3(JMplus) (FLT3; FLT3(JMplus) construct) |
| --- | --- | --- | --- | --- | --- | --- | --- |
| COC(=O)c1ccc(C(=O)Nc2ccc(NC(=O)Nc3cc(C(C)(C)C)on3)cc2)nc1 [Compound N113] | + + + + | > 10 µM | + + + + | + + + + | – | – | – |
| CC(C)(C)c1cc(NC(=O)Nc2ccc(-c3nc(-c4cccc5ccccc45)no3)cc2)no1 [Compound P5] | + + + + | > 10 µM | + + + + | + + + | – | – | – |
| CC(C)(C)c1cc(NC(=O)Nc2ccc(NC(=O)c3cc4cccc5c4n(c3=O)CC5)cc2)no1 [Compound N60] | + + + + | > 10 µM | + + + + | + + + + | – | – | – |
| CC(C)(C)c1cc(NC(=O)Nc2ccc(Nc3ncnc4[nH]cnc34)cc2)no1 [Compound O3] | + + + + | – | + + + + | + + + + | + + | – | – |
| CC(C)(C)c1cc(NC(=O)Nc2ccc(NC(=O)c3cn4cc(Cl)ccc4n3)cc2)no1 [Compound N3] | + + + + | – | + + + + | + + + + | + + | – | – |
| CC(C)(C)c1cc(NC(=O)Nc2ccc(OCC3CCC3)cc2)no1 [Compound G39] | + + + + | – | + + + + | + + + | + + | – | – |
| C=N/C(=N\C)Oc1cccc(C(=O)Nc2ccc(NC(=O)Nc3cc(C(C)(C)C)on3)cc2)c1 [Compound N74] | – | – | + + + + | + + + + | + + | + + + + | – |
| CC(C)(C)c1cc(NC(=O)Nc2ccc(OCc3ccc(F)cc3)cc2)no1 [Compound G35] | + + + + | > 10 µM | + + + + | + + + | – | – | – |
| CC(C)(C)c1cc(NC(=O)Nc2ccc(OCc3ccccc3F)cc2)no1 [Compound G12, 1-(4-(2-fluorobenzyloxy)phenyl)-3-(5-tert-butylisoxazol-3-yl)urea] | + + + + | – | + + + + | + + + + | + + | – | – |
| Cn1nc(-c2ccccc2)c2cc(C(=O)Nc3ccc(NC(=O)Nc4cc(C(C)(C)C)on4)cc3)sc21 [Compound N5] | + + + + | – | + + + + | + + + + | + + + | – | – |
| CC(C)(C)c1cc(NC(=O)Nc2ccc(OCCc3ccccc3F)cc2)no1 [Compound G25] | + + + + | – | + + + + | + + + | + + | – | – |
| CC(C)(C)c1cc(NC(=O)Nc2ccc(NC(=O)c3cccc4cccnc34)cc2)no1 [Compound N115] | + + + + | – | + + + + | + + + + | + + + | – | – |
| CC(C)(C)c1cc(NC(=O)Nc2ccc(-c3nc(-c4ccc(Cl)cc4)no3)cc2)no1 [Compound P7] | + + + + | > 10 µM | + + + + | + + + | – | – | – |
| Cc1nc(-c2ccc(C(=O)Nc3ccc(NC(=O)Nc4cc(C(C)(C)C)on4)cc3)s2)cs1 [Compound N173] | + + + + | > 10 µM | + + + + | + + + + | – | – | – |
| CC(C)(C)c1cc(NC(=O)Nc2ccc(CCc3ccc(N)cc3)cc2)no1 [Compound A3] | + + + + | – | + + + + | + + + + | + + | – | – |
| Cc1cnc(C(=O)Nc2ccc(NC(=O)Nc3cc(C(C)(C)C)on3)cc2)c(C(=O)O)n1 [Compound N160] | – | > 10 µM | + + + + | + + + + | – | + + + + | – |

| Structure (SMILES) | Binding Assay: FLT3(DKIN) (FLT3) | IC50 (CS0002) | Cell Assay: CS0001:IC50 (MV4,11 cells) | Cell Assay: CS0005:IC50 (CS0005) | Cell Assay: CS0002:IC50 (CS0002) | Binding Assay: FLT3(JMminus) (FLT3) | Binding Assay: FLT3(JMplus) (FLT3; FLT3(JMplus) construct) |
| --- | --- | --- | --- | --- | --- | --- | --- |
| CC(C)(C)c1cc(NC(=O)Nc2ccc(NC(=O)CSCC(=O)Nc3ccccc3)cc2)no1 [Compound N72] | – | – | + + + + | + + + + | + + | + + + + | – |
| COc1cc2nc(Cl)nc(Nc3ccc(NC(=O)Nc4cc(C(C)(C)C)on4)cc3)c2cc1OC [Compound O1, 1-(4-(2-chloro-6,7-dimethoxyquinazolin-4-ylamino)phenyl)-3-(5-tert-butylisoxazol-3-yl)urea] | + + + + | – | + + + + | + + + + | + + | – | – |
| CC(C)(C)c1cc(NC(=O)Nc2ccc(OCC3CC3)cc2)no1 [Compound G37] | + + + + | – | + + + + | + + + | + + | – | – |
| CC(C)(C)c1cc(NC(=O)Nc2ccc(NC(=O)c3cnccn3)cc2)no1 [Compound N136] | + + + + | > 10 µM | + + + + | + + + + | – | – | – |
| Cc1ccc2sc(C(=O)Nc3ccc(NC(=O)Nc4cc(C(C)(C)C)on4)cc3)cc2c1 [Compound N133] | + + + + | – | + + + + | + + + + | + + | – | – |
| CC(C)(C)c1cc(NC(=O)Nc2ccc(NC(=O)c3ccc4ccccc4n3)cc2)no1 [Compound N143] | + + + + | – | + + + + | + + + + | + + | – | – |
| CN(C)c1ccc(C(=O)Nc2ccc(NC(=O)Nc3cc(C(C)(C)C)on3)cc2)cn1 [Compound N159] | – | – | + + + + | + + + + | + + | + + + + | – |
| Cc1cc(C)nc(N(C)c2ccc(C(=O)Nc3ccc(NC(=O)Nc4cc(C(C)(C)C)on4)cc3)cc2)n1 [Compound N50] | + + + + | – | + + + + | + + + | + + | – | – |
| CC(C)(C)c1cc(NC(=O)Nc2ccc(OCc3ccc4ccccc4c3)cc2)no1 [Compound G3] | + + + + | – | + + + + | + + + + | + + | – | – |
| CC(C)(C)c1cc(NC(=O)Nc2ccc(C(=O)Nc3nccnc3N)cc2)no1 [Compound N157] | – | > 10 µM | + + + + | + + + + | – | + + + + | – |
| CC(=O)c1ccc(N2CCC(C(=O)Nc3ccc(NC(=O)Nc4cc(C(C)(C)C)on4)cc3)CC2)cc1 [Compound N65] | + + + + | > 10 µM | + + + + | + + + | – | – | – |
| CC(C)(C)c1cc(NC(=O)Nc2ccc(NC(=O)c3cccc(Cl)n3)cc2)no1 [Compound N4] | + + + + | – | + + + + | + + + + | + + | – | – |
| CC(C)(C)c1cc(NC(=O)Nc2ccc(NC(=O)c3ncccc3O)cc2)no1 [Compound N134] | + + + + | – | + + + + | + + + + | + + | + + + + | + + + |
| CC(=O)Oc1cccnc1C(=O)Nc1ccc(NC(=O)Nc2cc(C(C)(C)C)on2)cc1 [Compound N79] | – | – | + + + + | + + + + | + + | + + + + | – |
| CC(C)(C)c1cc(NC(=O)Nc2ccc(CCc3ccccc3)cc2)no1 [Compound A15] | + + + + | – | + + + + | + + + | + + | – | – |
| CC(C)(C)c1cc(NC(=O)Nc2ccc(NC(=O)c3cnnc4ccccc34)cc2)no1 [Compound N147] | + + + + | – | + + + + | + + + + | + + | – | – |
